Assay results taken from ChEMBL document CHEMBL1201862, “PubChem BioAssay data set” (2004).
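Method: 48-hour compound exposure of cells in 96-well plates, five concentrations, linear interpolation of endpoints. GI50 marks 50% less growth.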 Active and inactive are the calls of the source. Cut-off read from the data, not from the text of the source: active = GI50 up to about 1.1 µM and inactive = higher.

Columns and labels:
Test in all cases: DTP human tumour cell line panel, 48 h
MOLT-4 = tested on: MOLT-4
HOP-62 = tested on: HOP-62
NCI-H23 = tested on: NCI-H23
SF-295 = tested on: SF-295
OVCAR-5 = tested on: OVCAR-5
SR = tested on: SR
DLD-1 = tested on: DLD-1
M14 = tested on: M14
HCT-116 = tested on: HCT-116
COLO 205 = tested on: COLO 205
SK-MEL-28 = tested on: SK-MEL-28
U-251 = tested on: U-251
ACHN = tested on: ACHN
SW-620 = tested on: SW-620
CCRF-CEM = tested on: CCRF-CEM
OVCAR-3 = tested on: OVCAR-3
RPMI-8226 = tested on: RPMI-8226
TK-10 = tested on: TK-10
RXF 393 = tested on: RXF 393
M19-MEL = tested on: M19-MEL
K562 = tested on: K562
SK-MEL-2 = tested on: SK-MEL-2
CAKI-1 = tested on: CAKI-1
EKVX = tested on: EKVX
786-0 = tested on: 786-0
NCI-H460 = tested on: NCI-H460
Malme-3M = tested on: Malme-3M
HCT-15 = tested on: HCT-15
LOX IMVI = tested on: LOX IMVI
A549 = tested on: A549
SNB-78 = tested on: SNB-78
SK-OV-3 = tested on: SK-OV-3
DMS-273 = tested on: DMS-273
SF-268 = tested on: SF-268
SF-539 = tested on: SF-539
HT-29 = tested on: HT-29
IGROV-1 = tested on: IGROV-1
SK-MEL-5 = tested on: SK-MEL-5
OVCAR-8 = tested on: OVCAR-8
UO-31 = tested on: UO-31
UACC-62 = tested on: UACC-62
NCI-H522 = tested on: NCI-H522
HOP-92 = tested on: HOP-92
DMS-114 = tested on: DMS-114
LXFL 529 = tested on: LXFL 529
HL-60 = tested on: HL-60
SNB-75 = tested on: SNB-75
KM12 = tested on: KM12
OVCAR-4 = tested on: OVCAR-4
NCI-H226 = tested on: NCI-H226
SN12C = tested on: SN12C
UACC-257 = tested on: UACC-257
KM-20L2 = tested on: KM-20L2
HCC 2998 = tested on: HCC 2998
XF498 = tested on: XF498
SNB-19 = tested on: SNB-19

In the case of Cc1ccc2c(c1)CN1c3ccc(C)cc3CN2C1c1ccccc1O, the GI50 (MOLT-4) is reported as 35.2 µM (inactive), the GI50 (HOP-62) is reported as 85.9 µM (inactive) and the GI50 (NCI-H23) is reported as 27.3 µM (inactive). The GI50 (SF-295) was 46.8 µM (inactive), the GI50 (OVCAR-5) was 18.6 µM (inactive) and the GI50 (SR) was 11.7 µM (inactive). For the same molecule, the GI50 (DLD-1) was 26.5 µM (inactive), the GI50 (M14) was > 100 µM (inactive) and the GI50 (HCT-116) was 18.7 µM (inactive). For the same molecule, the GI50 (COLO 205) was 78.7 µM (inactive), the GI50 (SK-MEL-28) was 37.5 µM (inactive) and the GI50 (U-251) was 38.5 µM (inactive). For the same molecule, the GI50 (ACHN) was 40.3 µM (inactive), the GI50 (SW-620) was 61.9 µM (inactive) and the GI50 (CCRF-CEM) was 47.9 µM (inactive). The GI50 (OVCAR-3) was 21.5 µM (inactive), the GI50 (RPMI-8226) was 19.5 µM (inactive) and the GI50 (TK-10) was 26.2 µM (inactive). For the same molecule, the GI50 (RXF 393) was 7.18 µM (inactive), the GI50 (M19-MEL) was 41.1 µM (inactive) and the GI50 (K562) was 34.7 µM (inactive). For the same molecule, the GI50 (SK-MEL-2) was 48.9 µM (inactive), the GI50 (CAKI-1) was > 100 µM (inactive) and the GI50 (EKVX) was 7.19 µM (inactive). For the same molecule, the GI50 (786-0) was 42.5 µM (inactive), the GI50 (NCI-H460) was 33.9 µM (inactive) and the GI50 (Malme-3M) was > 100 µM (inactive). For the same molecule, the GI50 (HCT-15) was 23.6 µM, the GI50 (LOX IMVI) was 58.5 µM (inactive) and the GI50 (A549) was > 100 µM (inactive). For the same molecule, the GI50 (SNB-78) was 67.1 µM (inactive), the GI50 (SK-OV-3) was > 100 µM (inactive) and the GI50 (DMS-273) was 13.5 µM (inactive). For the same molecule, the GI50 (SF-268) was 81.7 µM (inactive), the GI50 (SF-539) was 49 µM (inactive) and the GI50 (HT-29) was 42 µM (inactive). For the same molecule, the GI50 (IGROV-1) was 79.4 µM (inactive), the GI50 (SK-MEL-5) was 13.7 µM (inactive) and the GI50 (OVCAR-8) was > 100 µM (inactive). For the same molecule, the GI50 (UO-31) was 24.9 µM (inactive), the GI50 (UACC-62) was 25.1 µM (inactive) and the GI50 (NCI-H522) was 65.6 µM (inactive). For the same molecule, the GI50 (HOP-92) was 15.2 µM (inactive), the GI50 (DMS-114) was 16.8 µM (inactive) and the GI50 (LXFL 529) was 48.8 µM (inactive). The GI50 (HL-60) was 14.8 µM (inactive), the GI50 (SNB-75) was 0.667 µM (active) and the GI50 (KM12) was 43.3 µM (inactive). For the same molecule, the GI50 (OVCAR-4) was 57 µM (inactive), the GI50 (NCI-H226) was 49.5 µM (inactive) and the GI50 (SN12C) was 29.9 µM (inactive).
O=c1nc2n(c3nsnc13)CCO2 was tested, and the GI50 (MOLT-4) was > 100 µM (inactive), the GI50 (HOP-62) was > 100 µM (inactive) and the GI50 (NCI-H23) was > 100 µM (inactive). For the same molecule, the GI50 (UACC-257) was > 100 µM (inactive), the GI50 (OVCAR-5) was > 100 µM (inactive) and the GI50 (SR) was > 100 µM (inactive). For the same molecule, the GI50 (DLD-1) was > 100 µM (inactive), the GI50 (M14) was > 100 µM (inactive) and the GI50 (HCT-116) was 29.8 µM (inactive). For the same molecule, the GI50 (COLO 205) was > 100 µM (inactive), the GI50 (SK-MEL-28) was > 100 µM (inactive) and the GI50 (U-251) was > 100 µM (inactive). For the same molecule, the GI50 (ACHN) was > 100 µM (inactive), the GI50 (SW-620) was > 100 µM (inactive) and the GI50 (CCRF-CEM) was > 100 µM (inactive). The GI50 (OVCAR-3) was > 100 µM (inactive), the GI50 (RPMI-8226) was > 100 µM (inactive) and the GI50 (TK-10) was > 100 µM (inactive). The GI50 (RXF 393) was > 100 µM (inactive), the GI50 (M19-MEL) was > 100 µM (inactive) and the GI50 (K562) was > 100 µM (inactive). For the same molecule, the GI50 (SK-MEL-2) was > 100 µM (inactive), the GI50 (CAKI-1) was > 100 µM (inactive) and the GI50 (EKVX) was > 100 µM (inactive). For the same molecule, the GI50 (786-0) was > 100 µM (inactive), the GI50 (NCI-H460) was > 100 µM (inactive) and the GI50 (Malme-3M) was > 100 µM (inactive). For the same molecule, the GI50 (HCT-15) was over 100 µM, the GI50 (KM-20L2) was > 100 µM (inactive) and the GI50 (LOX IMVI) was > 100 µM (inactive). The GI50 (A549) was > 100 µM (inactive), the GI50 (SK-OV-3) was > 100 µM (inactive) and the GI50 (HCC 2998) was > 100 µM (inactive). The GI50 (DMS-273) was > 100 µM (inactive), the GI50 (SF-268) was > 100 µM (inactive) and the GI50 (SF-539) was > 100 µM (inactive). For the same molecule, the GI50 (HT-29) was > 100 µM (inactive), the GI50 (IGROV-1) was > 100 µM (inactive) and the GI50 (SK-MEL-5) was > 100 µM (inactive). The GI50 (OVCAR-8) was > 100 µM (inactive), the GI50 (UO-31) was > 100 µM (inactive) and the GI50 (UACC-62) was > 100 µM (inactive). The GI50 (XF498) was > 100 µM (inactive), the GI50 (NCI-H522) was > 100 µM (inactive) and the GI50 (HOP-92) was > 100 µM (inactive). For the same molecule, the GI50 (DMS-114) was 36.6 µM (inactive), the GI50 (LXFL 529) was > 100 µM (inactive) and the GI50 (HL-60) was > 100 µM (inactive). For the same molecule, the GI50 (SNB-75) was > 100 µM (inactive), the GI50 (SNB-19) was > 100 µM (inactive) and the GI50 (KM12) was > 100 µM (inactive). The GI50 (NCI-H226) was > 100 µM (inactive) and the GI50 (SN12C) was > 100 µM (inactive).
